Laboratory results taken from patent US20220073536A1 (Rigel Pharmaceuticals, Inc., priority 2003, published 2022).
Where a name gives a salt, the structure may show the parent alone. Read-outs that look alike come from different tables or passages of the source. One block for each molecule: values may come before it.

Test system: cultured human mast cells (CHMC)
Assay: CHMC low cell density IgE activation: tryptase assay
Format: cell-based
Conditions: IgE activation
Outline: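 Tryptase release was read from supernatant with a fluorogenic substrate (30 min, room temperature) after anti-IgE challenge of cultured human mast cells (1000–1500 cells/well, low density) for 30 minutes at 37° C.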

[1] = Homo sapiens, Mast cell, low cell density CHMC, tryptase, 3 pt, read-out: LD Tryptase, CHMC, IgE, 3 pt
[2] = Homo sapiens, Mast cell, low cell density, 3 pt, read-out: LD Tryptase, CHMC, IgE, 3 pt
[3] = Homo sapiens, Mast cell, low cell density, 8 pt, read-out: LD Tryptase, CHMC, IgE, 8 pt
[4] = low cell density CHMC, tryptase release, 3 pt, read-out: LD Tryptase, CHMC, IgE, 3 pt
[5] = Homo sapiens, Mast cell, low cell density CHMC, tryptase, 8 pt, read-out: LD Tryptase, CHMC, IgE, 8 pt
[6] = low cell density CHMC, tryptase release, 8 pt, read-out: LD Tryptase, CHMC, IgE, 8 pt

IC50 (low cell density CHMC, tryptase, 3 pt, read-out: LD Tryptase, CHMC, IgE, 3 pt): < 10 µM
Molecule: N4- (2,2-Dimethyl-3-oxo-4H-5-pyrid[1,4]oxazin-6-yl)-5-fluoro-N2- (3-methoxycarbonylppyrid-2yl)-2,4-pyrimidinediamine [Compound 1314]

IC50 [1]: < 10 µM
Molecule: CN(c1ccc(Cl)c(Cl)c1)c1nc(Nc2ccc(C(N)=O)cc2)ncc1F [Compound 1346]

IC50 [2]: < 10 µM
Molecule: COc1ccc(Nc2nc(Nc3ccc4cnn(C)c4c3)ncc2F)nc1Cl [Compound 885]

IC50 [3]: < 10 µM
Molecule: CC1(C)Oc2ccc(Nc3nc(Nc4ccc5nc(C(F)(F)F)[nH]c5c4)ncc3F)cc2NC1=O [Compound 539, N4-(2,2-Dimethyl-3-oxo-4H-benz[1,4]oxazin-6-yl)-5-fluoro-N2-(2-trifluoromethyl-3H-benzimidazol-5-yl)-2,4-pyrimidinediamine p-Toluenesulfonic Acid Salt]

IC50 [4]: < 10 µM
Molecule: CC1(C)C(=O)Nc2cc(Nc3nc(Cl)ncc3F)ccc2S1(=O)=O [Compound 318, N2-Chloro-N4-(2,2-dimethyl-1,1,3-trioxo-4H-benzo[1,4]thiazin-6-yl)-5-fluoro-4-pyrimidineamine]

IC50 [1]: > 10 µM
Molecule: CN1CCN(c2ccc(Nc3ncc(F)c(NC(C)(C)C)n3)cc2)CC1 [Compound 1215]

IC50 [4]: < 10 µM
Molecule: CC1Sc2ccc(Nc3nc(Cl)ncc3F)cc2NC1=O (racemic) [Compound 314, racemic-N2-Chloro-5-fluoro-N4-(2-methyl-3-oxo-2H,4H-benzo[1,4]thiazin-6-yl)-4-pyrimidineamine]

IC50 [5]: < 10 µM
Molecule: COc1cc(Nc2nc(Nc3ccc4cnn(CC5CC5)c4c3)ncc2F)ccc1F [Compound 741, N2-[1-(Cyclopropylmethyl)indazol-6-yl)-5-fluoro-N4-(4-fluoro-3-methoxyphenyl)-2,4-pyrimidinediamine]

IC50 [5]: < 10 µM
Molecule: CCCn1ncc2cc(Nc3ncc(F)c(Nc4ccc(F)c(OC)c4)n3)ccc21 [Compound 705, 5-Fluoro-N4-(4-fluoro-3-methoxyphenyl)-N2-(1-n-propylindazol-5-yl)-2,4-pyrimidinediamine]

IC50 [6]: < 10 µM
Molecule: CNC(=O)COc1cccc(Nc2ncc(F)c(Nc3ccc4c(c3)NC(=O)C(C)(C)S4(=O)=O)n2)c1 [Compound 275, N4-(2,2-Dimethyl-1,1,3-trioxo-4H-benzo[1,4]thiazin-6-yl)-5-fluoro-N2-[3-(N-methylamino)carbonylmethyleneoxyphenyl]-2,4-pyrimidinediamine]

IC50 [2]: < 10 µM
Molecule: CCn1ncc2ccc(Nc3ncc(F)c(Nc4ccc(OC)c(Cl)n4)n3)cc21 [Compound 887]

IC50 (low cell density, 8 pt, read-out: LD Tryptase, CHMC, IgE, 8 pt): < 10 µM
Molecule: COc1c(C)cc(Nc2ncc(F)c(Nc3ccc4c(c3)NCC(C)(C)O4)n2)cc1Cl [Compound 1001, N2-(3-Chloro-4-methoxy-5-methylphenyl)-N4-(3,4-dihydro-2,2-dimethyl-4H-benz[1,4]oxazin-6-yl)-5-fluoro-2,4-pyrimidinediamine]

IC50 [4]: < 10 µM
IC50 [6]: < 10 µM
Molecule: CC1(C)Oc2ccc(Nc3nc(Nc4ccc5c(cnn5CCCN5C(=O)CCC5=O)c4)ncc3F)cc2NC1=O [Compound 855, N4-(2,2-Dimethyl-3-oxo-4H-benz[1,4]oxazin-6-yl)-5-fluoro-N2-[1-[3-(N-succinimidopropyl)]indazol-5-yl]-2,4-pyrimidinediamine]

IC50 [2]: < 10 µM
IC50 [3]: < 10 µM
Molecule: C[C@@H]1Oc2ccc(Nc3nc(Nc4ccc5c(c4)nc(CS(C)(=O)=O)n5C)ncc3F)cc2NC1=O [Compound 968]

IC50 [4]: < 10 µM
Molecule: CNC(=O)COc1cccc(Nc2ncc(F)c(Nc3ccc4ccn(C(=O)NC)c4c3)n2)c1 [Compound 327, 5-Fluoro-N4-[1-(N-methylamino)carbonylindol-6-yl]-N2-[3-(N-methylamino)carbonylmethyleneoxyphenyl]-2,4-pyrimidinediamine]

IC50 [1]: < 10 µM
Molecule: Cc1cc(Nc2ncc(F)c(NC3CCCC3)n2)cnc1N1CCN(C)CC1 [Compound 1240, N4-Cyclopentyl-5-fluoro-N2-[2-(4-methylpiperazino)-3-methylpyrid-5-yl]-2,4-pyrimidinediamine]

IC50 [2]: < 10 µM
Molecule: COc1ccc(Nc2nc(Nc3ccc4cn[nH]c4c3)ncc2F)nc1Cl [Compound 882]
